Where two headings read alike, the source gives them in different places.
What was measured:
HCV JFH1-2a replicon = assay: HCV JFH1-2a subgenomic replicon assay (Renilla luciferase, Huh 7.5.1 replicon cells); assay type: cell-based; conditions: Hepatitis C virus
[1] = Cell proliferation (cytotoxicity) assay, WST-1; assay type: cell-based; conditions: human, Huh 7.5.1 cells, Table 4, 48 h
Procedure: Cell Proliferation Assay: Huh 7.5.1 cells were seeded at a density of 2 × 10^4 cells per well in 96-well plates overnight. The cells were respectively incubated with serial diluted compounds for 48 h, and the viability of Huh7.5.1 cells was determined in 96-well tissue culture plates using cell proliferation reagent WST-1 (Roche, Basel, Switzerland). The absorbance (OD450 /reference OD630) was measured to detect the cytotoxicity of compounds, according to the manufacturer’s protocol of Cell Proliferation Reagent WST-1.

HCV H77-1a replicon = assay: HCV H77-1a subgenomic replicon assay; assay type: cell-based; conditions: Hepatitis C virus; Table 4; read-out: Anti-HCV Activity EC50 ± SD Replicon Assay H77-1a
[2] = system: JFH1-2a virus (wild type); assay: HCV virus assay, JFH1-2a wild type, Huh 7.5.1 cells; conditions: Hepatitis C virus, Huh-7.5.1, read-out: Anti-HCV Activity EC50 ± SD Virus Assay JFH1-2a
HCV Con1-1b replicon = assay: HCV Con1-1b subgenomic replicon assay; assay type: cell-based; conditions: Hepatitis C virus; Table 4; read-out: Anti-HCV Activity EC50 ± SD Replicon Assay Con1-1b
[3] = Table 1, mean ± SD of three independent experiments, read-out: Anti-HCV JFH1-2a Replicon Assay EC50 ± SD
[4] = Table 4, read-out: Anti-HCV Activity EC50 ± SD Replicon Assay JFH1-2a

SMILES | EC50 (HCV JFH1-2a replicon; [3]) [nM] | CC50 at 48 h [1] [nM] | EC50 (HCV H77-1a replicon) [nM] | EC50 (HCV JFH1-2a replicon; [4]) [nM] | EC50 [2] [nM] | EC50 (HCV Con1-1b replicon) [nM] | melting point [°C]
O=C(NC(=O)c1c(O)cccc1O)Nc1cccc2ccccc12 [Compound 2] | > 10000 |  |  |  |  |  | 
O=C(NCc1ccccc1)NC(=O)c1c(O)cccc1O [Compound 3] | > 50000 |  |  |  |  |  | 
O=C(NC(=O)c1c(O)cccc1O)NC1CCCCC1 [Compound 4] | > 50000 |  |  |  |  |  | 
O=C(NC(=O)c1ccccc1Cl)NC1c2ccccc2-c2ccccc21 [Compound 5] | > 50000 |  |  |  |  |  | 
O=C(NC(=O)c1ccccc1[N+](=O)[O-])NC1c2ccccc2-c2ccccc21 [Compound 6] | > 50000 |  |  |  |  |  | 
N#Cc1ccccc1C(=O)NC(=O)NC1c2ccccc2-c2ccccc21 [Compound 7] | > 50000 |  |  |  |  |  | 
O=C(NC(=O)c1ccccc1F)NC1c2ccccc2-c2ccccc21 [Compound 8] | 1650 ± 320 |  |  |  |  |  | 
O=C(NC(=O)c1ccccc1C(F)(F)F)NC1c2ccccc2-c2ccccc21 [Compound 9] | > 10000 |  |  |  |  |  | 
CSc1ccccc1C(=O)NC(=O)NC1c2ccccc2-c2ccccc21 [Compound 10] | > 50000 |  |  |  |  |  | 
O=C(NC(=O)c1c(F)cccc1F)NC1c2ccccc2-c2ccccc21 [Compound 11] | > 50000 |  |  |  |  |  | 
CSc1cccc(F)c1C(=O)NC(=O)NC1c2ccccc2-c2ccccc21 [Compound 12] | > 50000 |  |  |  |  |  | 
COc1cccc(Cl)c1C(=O)NC(=O)NC1c2ccccc2-c2ccccc21 [Compound 13] | > 50000 |  |  |  |  |  | 
CC(=O)Oc1cccc(OC(C)=O)c1C(=O)NC(=O)NC1c2ccccc2-c2ccccc21 [Compound 15, 1-[2,6-Bis-(acetoxy)benzoyl]-3-(9H-fluoren-9-yl)-urea] | 460 ± 50 | > 16000 | 800 ± 130 | 460 ± 50 | 740 ± 360 | 360 ± 40 | 
O=C(NC(=O)c1c(O)cccc1OCCO)NC1c2ccccc2-c2ccccc21 [Compound 16] | > 20000 |  |  |  |  |  | 
O=C(NC(=O)c1c(OCCO)cccc1OCCO)NC1c2ccccc2-c2ccccc21 [Compound 17] | > 20000 |  |  |  |  |  | 
CCC(=O)Oc1cccc(O)c1C(=O)NC(=O)NC1c2ccccc2-c2ccccc21 [Compound 19, 1-(2-Hydroxy-6-propionyloxybenzoyl)-3-(9H-fluoren-9-yl)-urea] |  | > 16000 | 380 ± 220 | 940 ± 70 | 470 ± 40 | 720 ± 200 | 206 to 216
CCCC(=O)Oc1cccc(O)c1C(=O)NC(=O)NC1c2ccccc2-c2ccccc21 [Compound 20, 1-(2-Hydroxy-6-n-butyryloxybenzoyl)-3-(9H-fluoren-9-yl)-urea] |  | > 16000 | 980 ± 30 | 700 ± 20 | 280 ± 20 | 490 ± 20 | 204 to 210
O=C(NC(=O)c1c(O)cccc1OC(=O)C1CC1)NC1c2ccccc2-c2ccccc21 [Compound 21, 1-(2-Cyclopropyl formyloxy-6-hydroxybenzoyl)-3-(9H-fluoren-9-yl)-urea] |  | > 16000 | 570 ± 200 | 430 ± 80 | 780 ± 350 | 850 ± 240 | 194 to 199
CCCCC(=O)Oc1cccc(O)c1C(=O)NC(=O)NC1c2ccccc2-c2ccccc21 [Compound 22, 1-(2-Hydroxy-6-valeryloxybenzoyl)-3-(9H-fluoren-9-yl)-urea] |  | > 16000 | 1000 ± 60 | 470 ± 20 | 440 ± 30 | 440 ± 100 | 193 to 199
CC(C)(C)C(=O)Oc1cccc(O)c1C(=O)NC(=O)NC1c2ccccc2-c2ccccc21 [Compound 23, 1-(2-Hydroxy-6-trimethylacetoxyloxybenzoyl)-3-(9H-fluoren-9-yl)-urea] |  | > 16000 | 670 ± 50 | 480 ± 20 | 530 ± 50 | 830 ± 280 | 187 to 189
CCCCCC(=O)Oc1cccc(O)c1C(=O)NC(=O)NC1c2ccccc2-c2ccccc21 [Compound 24, 1-(2-Hexanoyloxy-6-hydroxybenzoyl)-3-(9H-fluoren-9-yl)-urea] |  | > 16000 | 1050 ± 10 | 1080 ± 50 | 740 ± 370 | 1000 ± 10 | 200 to 222
O=C(NC(=O)c1c(OC(=O)c2ccccc2)cccc1OC(=O)c1ccccc1)NC1c2ccccc2-c2ccccc21 [Compound 26, 1-[2,6-Bis-(benzoyloxy)benzoyl]-3-(9H-fluoren-9-yl)-urea] |  | > 16000 | 530 ± 210 | 360 ± 30 | 1090 ± 30 | 390 ± 50 | 211 to 213
CCC(=O)Oc1cccc(OC(=O)CC)c1C(=O)NC(=O)NC1c2ccccc2-c2ccccc21 [Compound 27, 1-[2,6-Bis-(propionyloxy)benzoyl]-3-(9H-fluoren-9-yl)-urea] |  | > 16000 | 520 ± 270 | 380 ± 30 | 420 ± 80 | 380 ± 20 | 165 to 167
CCCC(=O)Oc1cccc(OC(=O)CCC)c1C(=O)NC(=O)NC1c2ccccc2-c2ccccc21 [Compound 28, 1-[2,6-Bis-(n-butyryloxy)benzoyl]-3-(9H-fluoren-9-yl)-urea] |  | > 16000 | 790 ± 200 | 840 ± 320 | 680 ± 470 | 620 ± 150 | 186 to 188
O=C(NC(=O)c1c(OC(=O)C2CC2)cccc1OC(=O)C1CC1)NC1c2ccccc2-c2ccccc21 [Compound 29, 1-[2,6-Bis-(cyclopropylformyloxy)benzoyl]-3-(9H-fluoren-9-yl)-urea] |  | > 16000 | 520 ± 140 | 420 ± 140 | 740 ± 350 | 600 ± 190 | 183 to 186
CCCCC(=O)Oc1cccc(OC(=O)CCCC)c1C(=O)NC(=O)NC1c2ccccc2-c2ccccc21 [Compound 30, 1-[2,6-Bis-(valeryloxy)benzoyl]-3-(9H-fluoren-9-yl)-urea] |  | > 16000 | 730 ± 110 | 620 ± 50 | 470 ± 10 | 830 ± 260 | 172 to 174
CC(C)(C)C(=O)Oc1cccc(OC(=O)C(C)(C)C)c1C(=O)NC(=O)NC1c2ccccc2-c2ccccc21 [Compound 31, 1-[2,6-Bis-(trimethylacetoxyloxy)benzoyl]-3-(9H-fluoren-9-yl)-urea] |  | > 16000 | 870 ± 270 | 750 ± 290 | 840 ± 210 | 560 ± 200 | 202 to 205
CCCCCC(=O)Oc1cccc(OC(=O)CCCCC)c1C(=O)NC(=O)NC1c2ccccc2-c2ccccc21 [Compound 32, 1-[2,6-Bis-(hexanoyloxy)benzoyl]-3-(9H-fluoren-9-yl)-urea] |  | > 16000 | 630 ± 290 | 380 ± 50 | 740 ± 310 | 730 ± 340 | 162 to 165
CCCCCCCC(=O)Oc1cccc(OC(=O)CCCCCCC)c1C(=O)NC(=O)NC1c2ccccc2-c2ccccc21 [Compound 33, 1-[2,6-Bis-(n-Octanoyloxy)benzoyl]-3-(9H-fluoren-9-yl)-urea] |  | > 16000 | 540 ± 150 | 980 ± 10 | 950 ± 20 | 730 ± 200 | 152 to 153
